Experimental data: patent US7566737B2 (Genfit, priority 2002, dated 2009)

Molecular target: T1, PPARδ (Mus musculus, UniProt P35396)
T1 construct: from tissue; host or cells: heart and skeletal muscle (quadriceps) of PPARα knock-out mice
T1 sequence (P35396 1-440): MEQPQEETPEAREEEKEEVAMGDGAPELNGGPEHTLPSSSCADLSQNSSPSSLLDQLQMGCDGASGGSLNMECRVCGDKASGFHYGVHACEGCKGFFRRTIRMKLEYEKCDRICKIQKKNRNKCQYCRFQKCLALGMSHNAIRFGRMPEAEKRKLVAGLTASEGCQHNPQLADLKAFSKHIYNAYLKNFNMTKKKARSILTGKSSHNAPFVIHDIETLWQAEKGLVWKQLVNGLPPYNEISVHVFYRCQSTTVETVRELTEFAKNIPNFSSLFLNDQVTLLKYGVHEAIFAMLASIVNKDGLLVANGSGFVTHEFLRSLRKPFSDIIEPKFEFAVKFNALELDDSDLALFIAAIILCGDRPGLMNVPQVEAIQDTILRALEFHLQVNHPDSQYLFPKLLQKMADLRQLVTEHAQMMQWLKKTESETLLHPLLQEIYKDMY
Assay: In vivo evaluation of PPARδ properties (target gene expression, RT-PCR)
Conditions: PPARα knock-out mouse; 150 mg/kg/day for 3 days
Description: The PPARα knock-out mouse model was used to characterize in vivo PPARδ activation. Animals were treated for 3 days at the dose of 150 mg/kg/day. Total RNA was isolated from heart and skeletal muscle (quadriceps). Messenger RNAs were quantified by quantitative RT-PCR and expression levels were normalized using 18S gene as reference.
The […] knock-out mouse model was used to characterize in vivo PPARδ activation. Animals were treated for 3 days at the dose of 150 mg/kg/day. Total RNA was isolated from heart and skeletal muscle (quadriceps). Messenger RNAs were quantified by quantitative RT-PCR: total RNA was extracted from fragments of skeletal muscle or heart, using the RNeasy® Fibrous Tissue kit (Qiagen), according to the manufacturer's instructions. Reverse transcription was performed on 1 μg of total RNA (quantified using the Ribogreen RNA quantification kit (Molecular Probes)) by action of 1 μl of MMLV-RT enzyme (Sigma) during 1 hour at 37° C. in a total volume of 20 μl. The reaction conditions were 1× buffer (Sigma), 1.5 mM DTT, 0.18 mM dNTPs (Promega), 200 ng pdN6 (Amersham), 30 U RNase inhibitor (Sigma). Quantitative PCR was then carried out using the MyiQ Single-Color Real-Time PCR Detection System (Biorad). Briefly PCR reactions were performed in 96 well plates on 5 μl of diluted reverse transcription mix using the iQ SYBR Green Supermix kit. The reaction conditions were: 25 μl of volume reaction, 3 mM of MgCl2, and 0.5 μl of each reverse and forward primer solutions (10 pMol), Tm of 55° C. The primers pairs are specific for each target genes. […]
The quantity of fluorescence emitted is directly proportional to the quantity of complementary DNA present at the start of the reaction and amplified during the PCR. The relative levels of expression were determined using the standard curve for each transcript. […] The induction factor, i.e. the ratio between the relative signal induced by the compound according to the invention and the average of the values relating to the control group, was then calculated for each sample. […]

Cc1cc(/C=C/C(=O)c2ccc(Br)cc2)cc(C)c1OC(C)(C)C(=O)O [Compound 41, 1-[4-bromophenyl]-3-[3,5-dimethyl-4-carboxydimethylmethyloxyphenyl]prop-2-en-1-one]
Induction: PDK4 expression in the heart | UCP2 expression in the skeletal muscle | UCP3 expression in the heart
